Test results from publication PMC10064984, “Anti-cyclooxygenase, anti-glycation, and anti-skin aging effect of Dendrobium officinale flowers’ aqueous extract and its phytochemical validation in aging” (Frontiers in Immunology, 2023).
“And” between values parts separate entries of the source, which are not always exact repeats. Identical values can stand only once. Values belong to the compound of their own block, whether it stands above or below them.

Assays:
Format in all cases: biochemical
[1] = Fluorescent AGEs formation in a BSA-fructose/glucose system; settings: for inhibition of fluorescent AGEs formation (BSA-抗糖化), 平均 (mean): mean of 3
Procedure: Glycated protein was prepared in vitro by incubating BSA in the presence of D-glucose (GLC) and D-fructose (FRC). The DOF extract and specific standards were dissolved in DMSO:water (1:4). […] The assay was performed in triplicate, and AG was used as a positive control. The percentage inhibition of fluorescent AGE formation was calculated using the following equation: […] Where IF sample is fluorescence intensity in the presence of samples and BSA, IF sample control is fluorescence intensity in the presence of samples without BSA, IF control is fluorescence intensity without samples, and IF blank control is fluorescence intensity without samples and BSA.

[2] = ABTS·+ decolourisation capacity
Procedure: Fast colourimetric methods were slightly modified for the in vitro assessment of DPPH· scavenging ([19]), ABTS·+ decolourisation capacity ([20]), and total antioxidant capacity of FRAP ([21]). The stock solutions of derivatisation reagents were diluted as follows before measurement: DPPH was diluted with absolute ethanol until the absorbance was 0.8 ± 0.05 at λ = 517 nm. ABTS working solution was prepared with phosphate buffer (0.2 M, pH 7.4) to display absorbance of 0.8 ± 0.05 at λ = 729 nm, based on a previous study ([22]). The FRAP solution was prepared according to the instructions of the FRAP kit. Absorbances were measured using an automatic microplate reader (Molecular Group Ltd., USA), and all analyses were performed using 96-well plates. All measurements were performed in triplicate, and Trolox was used as a positive control.
For ABTS·+ decolourisation capacity, 100 μl of ABTS working solution was mixed with 200 μl of sample solution, and the absorbance was recorded after 10 min at 729 nm. Phosphate buffer (0.2 M, pH 7.4) was used as a negative control.
DPPH· and ABTS·+ radical scavenging activities of the tested sample were both calculated using the following formula:
% inhibition = (A control − A sample)/A control × 100
Where A control and A sample represent the absorbance of the control and test samples, respectively. The IC50 was calculated graphically from the dose-inhibition curves.

[3] = FRAP total antioxidant capacity; settings: for 标准曲线对应浓度 mM FeSO4 (FRAP, FeSO4 equivalent from standard curve): individual replicates; for 标准曲线对应浓度 mM FeSO4, mean: mean of 3;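 on all read-outs here: colourimetric FRAP kit assay read as absorbance in 96-well plates, values as mM FeSO4 via standard curve, EC1 being sample concentration matching 1.0 mmol/L FeSO4, Trolox positive control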
DPPH· scavenging = assay: DPPH· scavenging;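 further: colourimetric DPPH radical scavenging in 96-well plates, absorbance read-out, percent inhibition relative to ethanol control absorbance, IC50 derived graphically from dose-inhibition curves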
COX-2 = biological target: T1, COX-2 (Homo sapiens, UniProt P35354); assay: Anti-COX-2 assay (COX-2 Inhibitor Screening Kit); settings: single replicates
T1 construct: purchased Beyotime S0168
T1 sequence (P35354 18-604): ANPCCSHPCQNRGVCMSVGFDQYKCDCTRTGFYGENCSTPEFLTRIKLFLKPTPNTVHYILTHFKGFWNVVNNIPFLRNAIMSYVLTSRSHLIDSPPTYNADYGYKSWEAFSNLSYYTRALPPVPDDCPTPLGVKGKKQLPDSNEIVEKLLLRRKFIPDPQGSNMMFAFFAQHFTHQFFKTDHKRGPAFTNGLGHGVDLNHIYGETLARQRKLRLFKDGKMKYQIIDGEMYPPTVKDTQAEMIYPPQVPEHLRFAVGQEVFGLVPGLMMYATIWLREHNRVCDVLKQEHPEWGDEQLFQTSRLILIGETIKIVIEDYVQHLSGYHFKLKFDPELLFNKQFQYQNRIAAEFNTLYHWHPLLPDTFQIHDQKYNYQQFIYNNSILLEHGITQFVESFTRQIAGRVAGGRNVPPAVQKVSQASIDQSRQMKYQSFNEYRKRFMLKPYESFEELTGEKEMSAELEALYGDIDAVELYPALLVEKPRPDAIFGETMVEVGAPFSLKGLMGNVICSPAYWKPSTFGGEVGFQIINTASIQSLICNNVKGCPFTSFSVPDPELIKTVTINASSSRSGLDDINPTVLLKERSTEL

[4] = upper part of sheet (extract series), positive control also given in μM
[5] = lower part of sheet (compound series)

IC50 ([1]; BSA-抗糖化, mean of 3 replicate IC50, read-out: IC50µM, mean): 288 µM | IC50 ([1]; BSA-抗糖化, per replicate curve, read-out: IC50µM, single replicate): 306 µM and 289 µM and 270 µM
SMILES: O=C(O)CC(=O)OC[C@H]1O[C@@H](Oc2c(-c3ccc(O)c(O)c3)oc3cc(O)cc(O)c3c2=O)[C@H](O)[C@@H](O)[C@@H]1O
inhibition of fluorescent AGEs formation (BSA-抗糖化), single replicate ([1]; 15.625 µM): 10.51% and 15.35% and 23.11% | inhibition of fluorescent AGEs formation (BSA-抗糖化), single replicate ([1]; 31.25 µM): 5.08% and 5.86% and 10.67% | inhibition of fluorescent AGEs formation (BSA-抗糖化), 平均 (mean) ([1]; 31.25 µM): 7.20% | inhibition of fluorescent AGEs formation (BSA-抗糖化), single replicate ([1]; 62.5 µM): 17.13% and 15.89% and 16.80% | inhibition of fluorescent AGEs formation (BSA-抗糖化), 平均 (mean) ([1]; 62.5 µM): 16.61% | inhibition of fluorescent AGEs formation (BSA-抗糖化), single replicate ([1]; 125 µM): 26.98% and 29.78% and 30.07% | inhibition of fluorescent AGEs formation (BSA-抗糖化), 平均 (mean) ([1]; 125 µM): 28.94% | inhibition of fluorescent AGEs formation (BSA-抗糖化), single replicate ([1]; 250 µM): 45.50% and 47.09% and 47.76% | inhibition of fluorescent AGEs formation (BSA-抗糖化), 平均 (mean) ([1]; 250 µM): 46.78% | inhibition of fluorescent AGEs formation (BSA-抗糖化), single replicate ([1]; 500 µM): 61.62% and 62.32% and 63.30% | inhibition of fluorescent AGEs formation (BSA-抗糖化), 平均 (mean) ([1]; 500 µM): 62.41% | inhibition of fluorescent AGEs formation (BSA-抗糖化), single replicate ([1]; 1000 µM): 77.56% and 77.94% and 77.85% | inhibition of fluorescent AGEs formation (BSA-抗糖化), 平均 (mean) ([1]; 1000 µM): 77.78% | inhibition of fluorescent AGEs formation (BSA-抗糖化), single replicate ([1]; 2000 µM): 88.53% and 88.63% and 88.83% | inhibition of fluorescent AGEs formation (BSA-抗糖化), 平均 (mean) ([1]; 2000 µM): 88.66% | inhibition of fluorescent AGEs formation (BSA-抗糖化), single replicate ([1]; 4000 µM): 94.35% and 94.74% and 94.79% | inhibition of fluorescent AGEs formation (BSA-抗糖化), 平均 (mean) ([1]; 4000 µM): 94.62%

IC50 ([2]; mean ± SD, n = 3): 145.7 ± 1.22 µM | IC50 [2, 4]: 111 µM | IC50 (DPPH· scavenging; mean ± SD, n = 3): 159 ± 4.47 µM | IC50 (DPPH· scavenging; [4]): 98.8 µM
SMILES: Cc1c(C)c2c(c(C)c1O)CCC(C)(C(=O)O)O2 (centres unmarked) [Trolox, 6-hydroxyl-2,5,7,8-tetra-methylchroman-2-carboxylic acid, reference compound]
ABTS scavenging rate ([2]; 7.8125 ug/ml, single replicate wells): 8.24% and 9.20% and 7.27% | ABTS scavenging rate ([2]; 15.625 ug/ml, single replicate wells): 16.72% and 19.40% and 19.88% | ABTS scavenging rate ([2]; 31.25 ug/ml, single replicate wells): 61.34% and 52.07% and 52.74% | ABTS scavenging rate ([2]; 62.5 ug/ml, single replicate wells): 94.28% and 95.58% and 92.94% | ABTS scavenging rate ([2]; 125 ug/ml, single replicate wells): 96.25% (2×) and 96.22% | ABTS scavenging rate ([2]; 250 ug/ml, single replicate wells): 96.32% and 96.28% and 96.27% | ABTS scavenging rate ([2]; 0.5mM series, concentration 7.8125 (unit not given), replicate wells): 5.05% and 4.88% and 5.29% | ABTS scavenging rate ([2]; 0.5mM series, concentration 15.625 (unit not given), replicate wells): 12.72% and 13.81% and 12.64% | ABTS scavenging rate ([2]; 0.5mM series, concentration 31.25 (unit not given), replicate wells): 31.58% and 33.31% and 33.45% | ABTS scavenging rate ([2]; 0.5mM series, concentration 62.5 (unit not given), replicate wells): 67.91% and 69.65% and 70.29% | ABTS scavenging rate ([2]; 0.5mM series, concentration 125 (unit not given), replicate wells): 99.61% and 99.52% and 99.85% | ABTS scavenging rate ([2]; 0.5mM series, concentration 250 (unit not given), replicate wells): 99.86% and 99.73% and 99.90% | ABTS scavenging rate ([2]; 0.5mM series, concentration 500 (unit not given), replicate wells): 99.85% and 99.75% and 99.73% | ABTS scavenging rate ([2]; 500 ug/ml, single replicate wells): 96.17% and 96.23% and 96.35% | 标准曲线对应浓度 mM FeSO4 (FRAP, FeSO4 equivalent from standard curve) ([3]; 0.15 mM (37.5 μg/ml)): 0.9597 mM FeSO4 and 0.8823 mM FeSO4 and 0.8550 mM FeSO4 | 标准曲线对应浓度 mM FeSO4, mean ([3]; 0.15 mM (37.5 μg/ml)): 0.8990 mM FeSO4 | 标准曲线对应浓度 mM FeSO4 (FRAP, FeSO4 equivalent from standard curve) ([3]; 0.3 mM (75 μg/ml)): 1.6552 mM FeSO4 and 1.6329 mM FeSO4 and 1.5219 mM FeSO4 | 标准曲线对应浓度 mM FeSO4, mean ([3]; 0.3 mM (75 μg/ml)): 1.6033 mM FeSO4 | 标准曲线对应浓度 mM FeSO4 (FRAP, FeSO4 equivalent from standard curve) ([3]; 0.6 mM (150 μg/ml)): 3.1630 mM FeSO4 and 2.8987 mM FeSO4 and 2.7627 mM FeSO4 | 标准曲线对应浓度 mM FeSO4, mean ([3]; 0.6 mM (150 μg/ml)): 2.9415 mM FeSO4 | 标准曲线对应浓度 mM FeSO4 (FRAP, FeSO4 equivalent from standard curve) ([3]; 0.9 mM (225 μg/ml)): 4.4046 mM FeSO4 and 4.2357 mM FeSO4 and 4.0364 mM FeSO4 | 标准曲线对应浓度 mM FeSO4, mean ([3]; 0.9 mM (225 μg/ml)): 4.2256 mM FeSO4 | 标准曲线对应浓度 mM FeSO4 (FRAP, FeSO4 equivalent from standard curve) ([3]; 1.2 mM (300 μg/ml)): 5.8342 mM FeSO4 and 5.5270 mM FeSO4 and 5.3675 mM FeSO4 | 标准曲线对应浓度 mM FeSO4, mean ([3]; 1.2 mM (300 μg/ml)): 5.5762 mM FeSO4 | 标准曲线对应浓度 mM FeSO4 (FRAP, FeSO4 equivalent from standard curve) ([3]; 1.5 mM (375 μg/ml)): 6.9332 mM FeSO4 and 6.7909 mM FeSO4 and 6.4969 mM FeSO4 | 标准曲线对应浓度 mM FeSO4, mean ([3]; 1.5 mM (375 μg/ml)): 6.7403 mM FeSO4 | FRAP EC1 [3, 5]: 559.8 ± 19.4 µM | FRAP EC1 ([3]; mean ± SD, n = 3): 559.8 ± 19.4 µM | FRAP EC1 ([3]; upper part of sheet (extract series)): 55.35 ± 5.22 µg/mL | DPPH scavenging (sheet "DPPH"), single replicate (DPPH· scavenging; 15.625 ug/ml): 32.84% and 29.98% and 33.39% | DPPH scavenging (sheet "DPPH"), single replicate (DPPH· scavenging; 31.25 ug/ml): 58.95% and 55.65% and 57.84% | DPPH scavenging (sheet "DPPH"), single replicate (DPPH· scavenging; 62.5 ug/ml): 84.01% and 87.99% and 89.81% | DPPH scavenging (sheet "DPPH"), single replicate (DPPH· scavenging; 125 ug/ml): 89.42% and 88.80% and 89.64% | DPPH scavenging (sheet "DPPH"), single replicate (DPPH· scavenging; 250 ug/ml): 88.55% and 89.46% and 90.81% | DPPH scavenging (sheet "DPPH"), single replicate (DPPH· scavenging; 500 ug/ml): 93.00% and 92.15% and 93.91% | DPPH scavenging (sheet "DPPH"), single replicate (DPPH· scavenging; 1000 ug/ml): 95.26% and 95.19% and 95.32%

COX-2 inhibition (COX-2; 31.25 μM, listed as T6, 31.25 µM): -4.26% | COX-2 inhibition (COX-2; 62.5 μM, listed as T6, 62.5 µM): -25.49% and -4.46% | COX-2 inhibition (COX-2; 125 μM, listed as T6, 125 µM): -10.40% | COX-2 inhibition (COX-2; 500 μM, listed as T6, 500 µM): -29.71% and -20.21% | COX-2 inhibition (COX-2; 1000 μM, listed as T6, 1000 µM): -42.43% and -38.19% | IC50 ([2]; mean ± SD, n = 3): 96.4 ± 2.11 µM | IC50 ([1]; mean ± SD, n = 3, read-out: BSA-glycation IC50): 256 ± 5.44 µM | IC50 (DPPH· scavenging; mean ± SD, n = 3): > 5000 µM
SMILES: O=c1cc(-c2ccc(O)cc2)oc2c(C3OC(CO)C(O)C(O)C3O)c(O)c(C3OCC(O)C(O)C3O)c(O)c12 (centres unmarked) [compound 14, Vicenin-1]
FRAP EC1 [3, 5]: >5000 µM
